Key:
[1] = target: Adenosine receptor A2a (Homo sapiens, UniProt P29274)
[2] = target: T1, Adenosine receptor A1 (Rattus norvegicus, UniProt P25099)
T1 sequence (P25099 whole entry): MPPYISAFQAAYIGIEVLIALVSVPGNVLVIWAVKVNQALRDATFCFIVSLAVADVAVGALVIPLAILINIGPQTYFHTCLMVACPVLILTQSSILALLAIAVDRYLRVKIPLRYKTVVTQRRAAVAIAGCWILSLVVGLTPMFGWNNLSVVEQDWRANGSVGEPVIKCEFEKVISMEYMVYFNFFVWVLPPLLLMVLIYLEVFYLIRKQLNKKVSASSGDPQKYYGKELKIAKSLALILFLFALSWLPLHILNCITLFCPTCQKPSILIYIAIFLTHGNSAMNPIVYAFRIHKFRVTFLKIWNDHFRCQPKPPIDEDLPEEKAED

Sequence of Adenosine receptor A2a (P29274 whole entry): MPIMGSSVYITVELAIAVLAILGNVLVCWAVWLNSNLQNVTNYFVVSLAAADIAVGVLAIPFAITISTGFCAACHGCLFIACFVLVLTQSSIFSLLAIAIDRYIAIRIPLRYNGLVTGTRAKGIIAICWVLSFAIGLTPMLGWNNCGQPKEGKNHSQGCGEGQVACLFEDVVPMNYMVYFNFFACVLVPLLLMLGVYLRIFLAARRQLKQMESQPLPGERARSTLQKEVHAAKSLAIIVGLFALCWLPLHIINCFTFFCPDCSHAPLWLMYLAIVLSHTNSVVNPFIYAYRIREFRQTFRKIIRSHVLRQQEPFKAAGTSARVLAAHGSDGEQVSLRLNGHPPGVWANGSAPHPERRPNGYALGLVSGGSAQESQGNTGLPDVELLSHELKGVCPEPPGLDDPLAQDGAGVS

Compound	Ki [1]	Ki [2]
OC[C@H]1CC[C@H](n2cnc3c(NC4CCCCC4)ncnc32)O1 [alpha-ddCHA]	> 10 µM	
OC[C@@H]1CC[C@H](n2cnc3c(NC4CCCCC4)ncnc32)O1 [ddCHA]	> 10 µM	4.8 µM

— BindingDB's records for doi:10.1016/0014-2999(88)90158-6 (Pharmakologisches Institut, 1988)
